Assay results: US20260070945A1, “MACROCYCLIC IMMUNOMODULATORS” (Bristol-Myers Squibb Company, priority 2022, published 2026)
Where a SMILES comes first, the peptide text is derived from it. Bridges are numbered along the chain shown (N, C = ends). [ ]: non-standard residue; d: D form. The star is where a group is joined. ξ: configuration not given here. Phe(4-CF3) = N[C@@H](Cc1ccc(C(F)(F)F)cc1)C(=O)O; Phe(4-COOH) = N[C@@H](Cc1ccc(C(=O)O)cc1)C(=O)O; Bip = N[C@@H](Cc1ccc(-c2ccccc2)cc1)C(=O)O; Phe(4-NH2) = Nc1ccc(C[C@H](N)C(=O)O)cc1; Phe(3-Me) = Cc1cccc(C[C@H](N)C(=O)O)c1; NH(CH2)12COOH = O=C(O)CCCCCCCCCCCCN*; Val(3-OH) = CC(C)(O)[C@H](N)C(=O)O; Cha = N[C@@H](CC1CCCCC1)C(=O)O; Thr(3ξ) = CC(O)[C@H](N)C(=O)O; Carboxymethyl = O=C(O)C*; NMeA = CN[C@@H](C)C(=O)O; Orn = NCCC[C@H](N)C(=O)O; Pra = C#CC[C@H](N)C(=O)O; Aun = NCCCCCCCCCCC(=O)O; Dab = NCC[C@H](N)C(=O)O; Dap = NC[C@H](N)C(=O)O; AEEA = NCCOCCOCC(=O)O

biological target: T1, PD-1/PD-L1 interaction (PE-labeled human PD-L1-Ig binding to Jurkat cell line over-expressing human PD-1) (Homo sapiens, UniProt Q15116); assay: Jurkat-PD-1 Cell Binding High-Content Screening Assay (CBA); details: Jurkat-hPD-1 cells, PE-labeled PD-L1-Ig 20 nM final; read-out: Jurkat HPD1 PDL1 IC50
T1 construct: expressed in transfected cells; host or cells: Jurkat
T1 sequence (Q15116 25-288): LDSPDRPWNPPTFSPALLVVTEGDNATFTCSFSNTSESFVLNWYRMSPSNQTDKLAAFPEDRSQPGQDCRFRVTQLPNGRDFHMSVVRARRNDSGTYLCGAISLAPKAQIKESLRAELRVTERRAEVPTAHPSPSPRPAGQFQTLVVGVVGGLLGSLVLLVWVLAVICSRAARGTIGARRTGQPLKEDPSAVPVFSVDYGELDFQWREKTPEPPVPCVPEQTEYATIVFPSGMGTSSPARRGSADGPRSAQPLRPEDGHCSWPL
In short: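 Binding of 20 nM (final) PE-tagged PD-L1-Ig to compound-pretreated Jurkat-hPD-1 cells was measured by high-content imaging after 1 h. Pretreatment ran 2 h at 37 °C in DMEM with 10% fetal calf serum.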

| Compound | IC50 [nM] |
| --- | --- |
| CC(C)C[C@@H]1NC(=O)[C@H](Cc2c[nH]c3ccccc23)NC(=O)[C@H](CC(=O)O)NC(=O)[C@H](Cc2ccc(C(=O)O)cc2)NC(=O)[C@H](Cc2ccc(OCC(=O)O)cc2)NC(=O)CSC[C@@H](C(=O)N[C@@H](CCN)C(=O)NCCOCCOCC(=O)NCCCCCCCCCCC(=O)O)NC(=O)[C@H](CCN)NC(=O)[C@H](C(C)(C)O)NC(=O)[C@H](CC2CCCCC2)NC(=O)[C@H](CCN)NC(=O)[C@@H](CC(C)C)NC(=O)[C@H](C)N(C)C(=O)[C@H](C(C)C)NC(=O)[C@H](Cc2ccc(-c3ccccc3)cc2)NC1=O [Example 1127] ({CH2CO}-Y(Carboxymethyl)[Phe(4-COOH)]DWL[Bip]V[NMeA][dL][Dab][Cha][Val(3-OH)][Dab]C[Dab][AEEA][Aun]-OH; thioether N-14) | 3.8 |
| Cc1cccc(C[C@@H]2NC(=O)[C@H](CC(=O)O)NC(=O)[C@H](Cc3ccc(OCC(=O)O)cc3)NC(=O)[C@H](CCN)NC(=O)CSC[C@@H](C(=O)N[C@@H](CCN)C(=O)NCCCCCCCCCCC(=O)O)NC(=O)[C@H](CO)NC(=O)[C@H](C(C)O)NC(=O)[C@H](CC3CCCCC3)NC(=O)[C@H](CCN)NC(=O)[C@@H](CC(C)C)NC(=O)[C@H](C)N(C)C(=O)[C@H](Cc3ccc(OCC(=O)O)cc3)NC(=O)[C@H](Cc3ccc(-c4ccccc4)cc3)NC(=O)[C@H](Cc3ccc(OCC(=O)O)cc3)NC2=O)c1 (stereo partly drawn) [Example 2425] ({CH2CO}-[Dab]Y(Carboxymethyl)D[Phe(3-Me)]Y(Carboxymethyl)[Bip]Y(Carboxymethyl)[NMeA][dL][Dab][Cha][Thr(3ξ)]SC[Dab][Aun]-OH; thioether N-14) | 15.6 |
| Cc1cccc(C[C@@H]2NC(=O)[C@H](CC(=O)O)NC(=O)[C@H](Cc3ccc(OCC(=O)O)cc3)NC(=O)[C@H]([C@@H](C)O)NC(=O)CSC[C@@H](C(=O)N[C@@H](CCN)C(=O)NCCOCCOCC(=O)NCCCCCCCCCCC(=O)O)NC(=O)[C@H](CCC(=O)O)NC(=O)[C@H](C(C)C)NC(=O)[C@H](CC3CCCCC3)NC(=O)[C@H](CC(N)=O)NC(=O)[C@@H](CC(C)C)NC(=O)[C@H](C)N(C)C(=O)[C@H](Cc3ccc(OCC(=O)O)cc3)NC(=O)[C@H](Cc3ccc(-c4ccccc4)cc3)NC(=O)[C@H](Cc3ccc(OCC(=O)O)cc3)NC2=O)c1 [Example 1364] ({CH2CO}-TY(Carboxymethyl)D[Phe(3-Me)]Y(Carboxymethyl)[Bip]Y(Carboxymethyl)[NMeA][dL]N[Cha]VEC[Dab][AEEA][Aun]-OH; thioether N-14) | 49.5 |
| CC(C)C[C@@H]1NC(=O)[C@H](Cc2c[nH]c3ccccc23)NC(=O)[C@H](CC(=O)O)NC(=O)[C@H](Cc2ccccc2)NC(=O)[C@H](Cc2ccc(OCC(=O)O)cc2)NC(=O)CSC[C@@H](C(=O)N[C@@H](CCCCN)C(=O)NCCOCCOCC(=O)NCCCCCCCCCCC(=O)O)NC(=O)[C@H](CO)NC(=O)[C@H](C(C)C)NC(=O)[C@H](CC2CCCCC2)NC(=O)[C@H](CCN)NC(=O)[C@@H](CC(C)C)NC(=O)[C@H](C)N(C)C(=O)[C@H](C(C)C)NC(=O)[C@H](Cc2ccc(-c3ccccc3)cc2)NC1=O [Example 2098] ({CH2CO}-Y(Carboxymethyl)FDWL[Bip]V[NMeA][dL][Dab][Cha]VSCK[AEEA][Aun]-OH; thioether N-14) | 24 |
| C#CC[C@H](NC(=O)[C@H](CCN)NC(=O)[C@@H]1CSCC(=O)N[C@@H]([C@@H](C)O)C(=O)N[C@@H](Cc2ccc(OCC(=O)O)cc2)C(=O)N[C@@H](CC(=O)O)C(=O)N[C@@H](Cc2cccc(C)c2)C(=O)N[C@@H](Cc2ccc(C(=O)O)cc2)C(=O)N[C@@H](Cc2ccc(-c3ccccc3)cc2)C(=O)N[C@@H](Cc2ccc(OCC(=O)O)cc2)C(=O)N(C)[C@@H](C)C(=O)N[C@H](CC(C)C)C(=O)N[C@@H](CCN)C(=O)N[C@@H](CC2CCCCC2)C(=O)N[C@@H](C(C)C)C(=O)N[C@@H]([C@@H](C)O)C(=O)N1)C(=O)NCCCCCCCCCCC(=O)O [Example 1240] ({CH2CO}-TY(Carboxymethyl)D[Phe(3-Me)][Phe(4-COOH)][Bip]Y(Carboxymethyl)[NMeA][dL][Dab][Cha]VTC[Dab][Pra][Aun]-OH; thioether N-14) | 20.7 |
| CC(C)C[C@@H]1NC(=O)[C@H](Cc2c[nH]c3ccccc23)NC(=O)[C@H](CC(=O)O)NC(=O)[C@H](Cc2ccc(C(=O)O)cc2)NC(=O)[C@H](Cc2ccc(OCC(=O)O)cc2)NC(=O)CSC[C@@H](C(=O)N[C@@H](CCCN)C(=O)NCCOCCOCC(=O)NCCCCCCCCCCC(=O)O)NC(=O)[C@H](CN)NC(=O)[C@H](C(C)C)NC(=O)[C@H](CC2CCCCC2)NC(=O)[C@H](CC(N)=O)NC(=O)[C@@H](CC(C)C)NC(=O)[C@H](C)N(C)C(=O)[C@H](C(C)C)NC(=O)[C@H](Cc2ccc(-c3ccccc3)cc2)NC1=O [Example 2143] ({CH2CO}-Y(Carboxymethyl)[Phe(4-COOH)]DWL[Bip]V[NMeA][dL]N[Cha]V[Dap]C[Orn][AEEA][Aun]-OH; thioether N-14) | 61.3 |
| Cc1cccc(C[C@@H]2NC(=O)[C@H](CC(=O)O)NC(=O)[C@H](Cc3ccc(OCC(=O)O)cc3)NC(=O)[C@H]([C@@H](C)O)NC(=O)CSC[C@@H](C(=O)N[C@@H](CCCN)C(=O)NCCOCCOCC(=O)NCCCCCCCCCCC(=O)O)NC(=O)[C@H](CC(N)=O)NC(=O)[C@H](C(C)C)NC(=O)[C@H](CC3CCCCC3)NC(=O)[C@H](CCN)NC(=O)[C@@H](CC(C)C)NC(=O)[C@H](C)N(C)C(=O)[C@H](Cc3ccc(OCC(=O)O)cc3)NC(=O)[C@H](Cc3ccc(-c4ccccc4)cc3)NC(=O)[C@H](Cc3ccc(OCC(=O)O)cc3)NC2=O)c1 [Example 1374] ({CH2CO}-TY(Carboxymethyl)D[Phe(3-Me)]Y(Carboxymethyl)[Bip]Y(Carboxymethyl)[NMeA][dL][Dab][Cha]VNC[Orn][AEEA][Aun]-OH; thioether N-14) | 17.4 |
| Cc1cccc(C[C@@H]2NC(=O)[C@H](CC(=O)O)NC(=O)[C@H](Cc3ccc(OCC(=O)O)cc3)NC(=O)[C@H](Cc3ccc(N)cc3)NC(=O)CSC[C@@H](C(=O)N[C@@H](CCN)C(=O)NCCCCCCCCCCC(=O)O)NC(=O)[C@H](CO)NC(=O)[C@H](C(C)C)NC(=O)[C@H](CC3CCCCC3)NC(=O)[C@H](CCN)NC(=O)[C@@H](CC(C)C)NC(=O)[C@H](C)N(C)C(=O)[C@H](Cc3ccc(O)cc3)NC(=O)[C@H](Cc3ccc(-c4ccccc4)cc3)NC(=O)[C@H](Cc3ccc(OCC(=O)O)cc3)NC2=O)c1 [Example 1279] ({CH2CO}-[Phe(4-NH2)]Y(Carboxymethyl)D[Phe(3-Me)]Y(Carboxymethyl)[Bip]Y[NMeA][dL][Dab][Cha]VSC[Dab][Aun]-OH; thioether N-14) | 39.3 |

same assay, conditions: PE-labeled PD-L1-Ig 20 nM final, Jurkat-hPD-1 cells; read-out: Jurkat HPD1 PDL1 IC50

| Compound | IC50 [nM] |
| --- | --- |
| CC(=O)NCCCC[C@@H]1NC(=O)[C@H](C(C)(C)O)NC(=O)[C@H](CC2CCCCC2)NC(=O)[C@H](CCN)NC(=O)[C@@H](CC(C)C)NC(=O)[C@H](C)N(C)C(=O)[C@H](CCC(N)=O)NC(=O)[C@H](Cc2ccc(-c3ccccc3)cc2)NC(=O)[C@H](Cc2ccc(C(F)(F)F)cc2)NC(=O)[C@H](Cc2cccc(C)c2)NC(=O)[C@H](CC(=O)O)NC(=O)[C@H](Cc2ccc(OCC(=O)O)cc2)NC(=O)[C@H](Cc2ccc(OCC(=O)O)cc2)NC(=O)CSC[C@@H](C(=O)N[C@@H](CCN)C(=O)NCCCCCCCCCCCCC(=O)O)NC1=O [Example 2621] ({CH2CO}-Y(Carboxymethyl)Y(Carboxymethyl)D[Phe(3-Me)][Phe(4-CF3)][Bip]Q[NMeA][dL][Dab][Cha][Val(3-OH)]K(Ac)C[Dab]-{NH(CH2)12COOH}; thioether N-14) | 22.4 |
